Data as given in patent US6545020B1, “Farnesyl Protein transferase inhibitors with in vivo radiosensitizing properties” (Janssen Pharmaceutica, N.V., priority 1998, dated 2003).

Columns and labels:
[1] = test system: LoVo human colon tumor cells; test: LoVo human colon tumor xenograft in athymic nude mice, oral treatment with or without single 7 Gy irradiation on day 32; assay type: in vivo
Source text: Male athymic nude mice weighing approximately 22 to 25 g were inoculated subcutaneously in the inguinal region with 1×10^6 of LoVo human colon tumor cells (LoVo cells) on day 0. After three weeks to allow tumors to become established (diameter approximately 0.5 to 1 cm), treatment was started with solvent or compound 75 via the oral route, and either with or without a single shot irradiation on day 32. Parameters for activity were tumor growth rate and weight of the tumors at day 42.
Compound 75 was dissolved in water and acidified with 1 N HCl solution to pH 2.5 and administered orally (po) as 0.1 ml of compound solution per 10 g mouse body weight twice daily (bid). The dose administered was either 50 or 100 mg compound per kg bodyweight; treatment either preceded irradiation (days 22-32), followed irradiation (days 32-42) or continued throughout the duration of the experiment (days 22-42).
In each arm of the experiment 16 animals were included. The column ‘tumor (g)’ contains the median of the tumor weight of the animals sacrificed at day 42 of the experiment. FIGS. 1 and 2 represent the observed data in graphical form.

[2] = test system: SF763; test: Radiosensitization of radioresistant human glioma cell line SF763 (surviving fraction after 2 Gy); assay type: cell-based; conditions: 2 nM, 48 h prior to irradiation (2 Gy)
Experimental: (§1) Radioresistant human glioma cell lines (SF763, U87, U251) were treated with compound 75, 48 h prior to irradiation (2 Gy). The dose administered was 0.4 nM for U251 and 2 nM for SF763 and U87.

[3] = test system: U87; test: Radiosensitization of radioresistant human glioma cell line U87 (surviving fraction after 2 Gy); assay type: cell-based; conditions: 2 nM, 48 h prior to irradiation (2 Gy)
Experimental: as §1

[4] = test system: U251; test: Radiosensitization of radioresistant human glioma cell line U251 (surviving fraction after 2 Gy); assay type: cell-based; conditions: 0.4 nM, 48 h prior to irradiation (2 Gy)
Experimental: as §1

SMILES: Cn1cncc1[C@@](N)(c1ccc(Cl)cc1)c1ccc2c(c1)c(-c1cccc(Cl)c1)cc(=O)n2C [Compound 75, (+)-(R)-6-[amino(4-chlorophenyl)(1-methyl-1H-imidazol-5-yl)methyl]-4-(3-chloro-phenyl)-1-methyl-2(1H)-quinolinone]
- tumor (g), median tumor weight at day 42 ([1]; Group II, 50 mpk po bid, day 22-42, irradiation none): 0.255 g
- tumor (g), median tumor weight at day 42 ([1]; Group III, 50 mpk po bid, day 22-32, irradiation none): 0.273 g
- tumor (g), median tumor weight at day 42 ([1]; Group IV, 50 mpk po bid, day 32-42, irradiation none): 0.295 g
- tumor (g), median tumor weight at day 42 ([1]; Group IX, 50 mpk po bid, day 22-32, irradiation 7 Gy on day 32): 0.156 g
- tumor (g), median tumor weight at day 42 ([1]; Group V, 100 mpk po bid, day 22-42, irradiation none): 0.205 g
- tumor (g), median tumor weight at day 42 ([1]; Group VI, 100 mpk po bid, day 22-32, irradiation none): 0.234 g
- tumor (g), median tumor weight at day 42 ([1]; Group VII, 100 mpk po bid, day 32-42, irradiation none): 0.277 g
- tumor (g), median tumor weight at day 42 ([1]; Group VIII, 50 mpk po bid, day 22-42, irradiation 7 Gy on day 32): 0.207 g
- tumor (g), median tumor weight at day 42 ([1]; Group X, 50 mpk po bid, day 32-42, irradiation 7 Gy on day 32): 0.259 g
- tumor (g), median tumor weight at day 42 ([1]; Group XI, 100 mpk po bid, day 22-42, irradiation 7 Gy on day 32): 0.164 g
- tumor (g), median tumor weight at day 42 ([1]; Group XII, 100 mpk po bid, day 22-32, irradiation 7 Gy on day 32): 0.141 g
- tumor (g), median tumor weight at day 42 ([1]; Group XIII, 100 mpk po bid, day 32-42, irradiation 7 Gy on day 32): 0.214 g
- effect of treatment on the effect of irradiation (statistical analysis) ([1]; both 50 and 100 mpk): potentiates the effect of irradiation
- effect of pretreatment and irradiation on tumor weight compared to irradiation alone ([1]; pretreatment, both 50 and 100 mpk, plus irradiation): reduces tumor weight in a statistically significant manner
- decrease of surviving fraction after irradiation [2]: about 55%
- decrease of surviving fraction after irradiation [3]: about 55%
- decrease of surviving fraction after irradiation [4]: 25%
